Laboratory results reported in EP0120019B1, “PHARMACEUTICAL COMPOSITION HAVING A C[…]” (SCHERING AKTIENGESELLSCHAFT, priority 1982, dated 1983).

What was measured:
[1] = test system: Menschliche Leukämiezellen und Lungenkarzinomzellen; assay: Inhibition of proliferation (growth kinetics by cell count) of tumour cells in culture; type: cell-based; conditions: for zytostatische Wirkung (Hemmung der Proliferation in vitro): general statement
[2] = test system: weißen Blutzellen des Menschen; assay: Accumulation in cells on incubation, detected by fluorescence optics; type: cell-based; conditions: incubation with 10^-7 -10-5-molar concentration
Description: Die selektive Wirkung auf Tumore wird auch dadurch unterstützt, daß sich Ergot-Alkaloide wie Lisurid in einzelnen Organen selektiv anreichern und damit hier zu besonders hoher Wirksamkeit gelangen.

[3] = test system: adulte und embryonale Lungenfibroblasten; assay: Inhibition of proliferation of normal cells under the same culture conditions; type: cell-based; conditions: high doses such as 100 ug/ml; same test conditions
Description: Tag durch frisches Medium mit Lisurid ersetzt wurde, wobei sich die Menge des Ergot-Alkaloids auf die freie Base Lisurid bezieht. Die Wachstumskinetik, d.h. die Vermehrungsrate pro Zeiteinheit, wurde durch Bestimmung der Zellzahl nach 48, 96 und 144 Stunden ermittelt und mit der von Zellen verglichen, die in Lisurid-freiem Medium kultiviert wurden.

[4] = Long-term oral treatment of rats (104 - 107 weeks), mortality; type: in vivo, Han-Wistar-Ratten; conditions: 0,02, 0,2 and 1,0 mg/kg oral
[5] = test system: Lungenademokarzinomen und Mäuseleukämien; assay: Long-term oral treatment of mice (104 - 107 weeks), mortality and tumour incidence; type: in vivo, NMRI-Mäuse; conditions: 0.02, 0,06 and 0,2 mg/kg oral
Description: Des weiteren wurden NMRI-Mäuse mit 0.02.

CCN(CC)C(=O)N[C@H]1C[C@@H]2c3cccc4[nH]cc(c34)C[C@H]2N(C)C1 [Tergurid, 1,1-Diethyl-3-(6-methyl-8a-erfolinyl)-harnstoff]
zytostatische Wirkung (Hemmung der Proliferation in vitro) [1]: zytostatisch wirken

CCN(CC)C(=O)N[C@H]1C=C2c3cccc4[nH]c(Br)c(c34)C[C@H]2N(C)C1 [Bromergurid, 1,1-Diethyl-3-(2-brom-6-methyl-9.10-didehydro-8a-ergolinyl)-harnstoff]
zytostatische Wirkung (Hemmung der Proliferation in vitro) [1]: zytostatisch wirken

CCN(CC)C(=O)N[C@H]1C=C2c3cccc4[nH]cc(c34)C[C@H]2N(C)C1 [Lisurid, 1,1-Diethyl-3-(6-methyl-9.10-didelhydro-8a-ergolinyl)-harnstoff]
Anreicherung der Lisuridfluoreszenz [2]: massive Anreicherung
Hemmung von Normalzellen [3]: wenn überhaupt nur minimal gehemmt
Sterblichkeit (überwiegend tumorbedingt) [4]: dosisabhängig reduzieren
Auftreten von Lungenademokarzinomen und Mäuseleukämien [5]: deutlichen Hemmung
Mortalität [5]: teilweise zur Verminderung der Mortalität
zytotoxische Wirkung ([1]; 100 ug/ml): zytotoxische Wirkung

CCCN1CC(NC(=O)N(CC)CC)CC2c3cccc4[nH]cc(c34)CC21 (stereo not drawn) [Protegurid, 1,1-Diethyl-3-(6-u-propyl-8α-ergolinyl)-harnstoff]
zytostatische Wirkung (Hemmung der Proliferation in vitro) [1]: zytostatisch wirken
